Legend:
Type in all cases: in vivo
potato = test: Example 9 drying stress test (potato), soil culture; conditions: 23° C., 100 ppm, 2 weeks; for Fresh weight, relative value (untreated plot = 100), Test 1 / Fresh weight, relative value (untreated plot = 100), Test 4 / Fresh weight, relative value (untreated plot = 100), Test 2 / Fresh weight, relative value (untreated plot = 100), Test 3: potato soil culture; for Fresh weight, relative value (untreated plot = 100), Test 1: EC 1, pF 2.8, two-leaf stage; for Fresh weight, relative value (untreated plot = 100), Test 4: EC 1, pF 3.5, five-leaf stage; for Fresh weight, relative value (untreated plot = 100), Test 2: EC 1, pF 3.5, two-leaf stage; for Fresh weight, relative value (untreated plot = 100), Test 3: EC 1, pF 4.1, two-leaf stage; for Fresh weight, relative value (untreated plot = 100), Comparison 1: stress-free: potato soil culture, EC 1, pF 1.7, two-leaf stage
Method: The environmental conditions in a climatic chamber were controlled so as to have a temperature of 23° C., an illuminance by a fluorescent light of 5000 Lux, and a daily light-dark cycle of a 16-hour light period and an 8-hour dark period. Potatoes as prepared above were transplanted in size-5 (15 cm) pots. During the test period, the pF value was controlled by adding a suitable amount of tap water once a day so as to attain a specific drying stress value. A treatment solution containing a compound of Table 5 in a specific concentration (the remainder was water) was prepared and sprayed onto the leaves or applied to the underground portions. […] A comparative example was constructed to reflect the drying stress-free optimum cultivation conditions to investigate the plant energizing ability. […] Moreover, when the products of the present invention and the comparative products were compared, the stress tolerance imparting ability of the products of the present invention was higher in respective drying stress conditions.

“Momotaro” tomato [1] = test: Example 6 salt stress test (tomato), hydroponic culture; conditions: 23° C., 100 ppm, 2 weeks; for Fresh weight, relative value (untreated plot = 100), Test 5 / Fresh weight, relative value (untreated plot = 100), Test 8 / Fresh weight, relative value (untreated plot = 100), Test 6 / Fresh weight, relative value (untreated plot = 100), Test 7: hydroponic culture; for Fresh weight, relative value (untreated plot = 100), Test 5: EC 2.7 mS/cm; for Fresh weight, relative value (untreated plot = 100), Test 5 / Fresh weight, relative value (untreated plot = 100), Test 6 / Fresh weight, relative value (untreated plot = 100), Test 7 / Fresh weight, relative value (untreated plot = 100), Comparison 2: two-leaf stage; for Fresh weight, relative value (untreated plot = 100), Test 8 / Fresh weight, relative value (untreated plot = 100), Test 6: EC 3.9 mS/cm; for Fresh weight, relative value (untreated plot = 100), Test 8: five-leaf stage; for Fresh weight, relative value (untreated plot = 100), Test 7: EC 4.8 mS/cm; for Fresh weight, relative value (untreated plot = 100), Comparison 2: stress-free: hydroponic culture, EC 1.3 mS/cm
Method: (§1) (a) Comparative example conditions (stress-free optimum growth conditions) Cultivation temperature: 23° C., EC: 1.3 mS/cm (Otsuka ½A formulation) (b) Example conditions (salt stress conditions) Cultivation temperature: 23° C., EC: 2.7, 3.9, 4.8 mS/cm (cultivation with Kureha gardening soil) (2) Illuminance: 5000 Lux (fluorescent light), light/dark cycle: 16 hours/8 hours (3) Employed soil: Kureha gardening soil manufactured by Kureha Corporation (fertilizer components: N:P:K=0.4:1.9:0.6 g/kg soil) (4) Employed solution culture medium: Otsuka ½A formulation: a mixed solution of Otsuka House No. 1 (N:P:K=10:8:27) 7.5 g/10 L and Otsuka House No. 2 (N:P:K:Ca=10:0:0:23) 5 g/10 L, total nitrogen: 130 ppm, phosphoric acid: 60 ppm, potassium: 203 ppm) (5) Cultivation period: 2 weeks (6) Plant preparation: A 50-cell tray was filled with Kureha gardening soil manufactured by Kureha Corporation (fertilizer components: N:P:K=0.4:1.9:0.6 g/kg soil), and seeds of a “Momotaro” tomato or tubers of a “Danshaku” potato were sowed, thinly covered with Kureha gardening soil, and sufficiently watered to allow the seeds or the tubers to sprout. When the leaves in the 2-leaf stage or the 5-leaf stage fully unfolded, the soil on the tomato roots or the potato roots was carefully washed away with running water, and a test was performed. (7) Test chemicals: POE (20) sorbitan monolauric acid ester: Reodol TW-L120 (Kao Corporation) POE (20) sorbitan monopalmitic acid ester: Reodol TW-P120 (Kao Corporation) POE (20) sorbitan monostearic acid ester: Reodol TW-S120 (Kao Corporation) POE (20) sorbitan monooleic acid ester: Reodol TW-O120 (Kao Corporation) Sorbitan monooleic acid ester: Emasol 0-10(F) (Kao Corporation) POE (6) sorbitan monooleic acid ester: Reodol TW-O106 (Kao Corporation) Alkyl (number of carbon atoms: 10) polyglucoside: AG-10LK (Kao Corporation) Alkyl (number of carbon atoms: 12 to 14) polyglucoside: AG-124 (Kao Corporation) Sucrose fatty acid ester (number of carbon atoms: C18, HLB: 5): S-570 (Mitsubishi-Kagaku Foods Corporation) Sucrose fatty acid ester (number of carbon atoms: C18, HLB: 9): S-970 (Mitsubishi-Kagaku Foods Corporation) Sucrose fatty acid ester (number of carbon atoms: C18, HLB: 11): S-1170 (Mitsubishi-Kagaku Foods Corporation) Sucrose fatty acid ester (number of carbon atoms: C18, HLB: 15): 5-1570 (Mitsubishi-Kagaku Foods Corporation) Sucrose fatty acid ester (number of carbon atoms: C16, HLB: 15): P-1570 (Mitsubishi-Kagaku Foods Corporation) Sucrose fatty acid ester (number of carbon atoms: C18:1, HLB: 15): O-1570 (Mitsubishi-Kagaku Foods Corporation) (8) Amount of treatment solution applied: 10 ml/specimen for leaf spraying, 250 ml/specimen for hydroponic culture (treatment of underground portion) (9) 50 ml/specimen for soil culture (treatment of underground portion)
The environmental conditions in a climatic chamber were controlled so as to have a temperature of 23° C., an illuminance by a fluorescent light of 5000 Lux, and a daily light-dark cycle of a 16-hour light period and an 8-hour dark period. Tomatoes as prepared above were planted in 250 ml polyethylene bottles each filled with a solution culture medium having a different EC value. Different EC values were achieved by taking a ½ Otsuka A formulation having an EC value of 1.3 as a standard and suitably increasing the fertilizer concentration through proportional counting. A treatment solution containing a compound of Table 1 in a specific concentration (the remainder was water) was prepared and sprayed onto the leaves or applied to the underground portion. In each test plot, 10 specimens were prepared for replication, and the average of the fresh weight of each specimen 2 weeks after the beginning of the test was calculated and expressed as a relative value where “100” indicates a result identical to that of the untreated plot of a given EC condition. […]

“Momotaro” tomato [2] = test: Example 6 salt stress test (tomato), soil culture; conditions: 23° C., 100 ppm, 2 weeks; for Fresh weight, relative value (untreated plot = 100), Test 1: EC 1.3 mS/cm; for Fresh weight, relative value (untreated plot = 100), Test 4: pF 1.7, five-leaf stage; for Fresh weight, relative value (untreated plot = 100), Test 3: EC 3 mS/cm
Method: (1) A. soil culture (a) Comparative example conditions (stress-free optimum growth conditions) Cultivation temperature: 23° C., EC: 1.0 mS/cm (cultivation with Kureha gardening soil), pF value: 1.7 (capillaries in a saturated state) (b) Example conditions (salt stress conditions) Cultivation temperature: 23° C., EC: 1.3, 2.0, 3.0 mS/cm (cultivation with Kureha gardening soil), pF value: 1.7 (capillaries in a saturated state)
as §1
The environmental conditions in a climatic chamber were controlled so as to have a temperature of 23° C., an illuminance by a fluorescent light of 5000 Lux, and a daily light-dark cycle of a 16-hour light period and an 8-hour dark period. Tomatoes as prepared above were transplanted in size-3 (9 cm) pots. During the test period, the EC value was controlled by adding a suitable amount of a 10% NaCl solution once a day so as to attain a specific salt stress value. A treatment solution containing a compound of Table 1 in a specific concentration (the remainder was water) was prepared and sprayed onto the leaves or applied to the underground portions. […]

[3] = soil culture, pF 1.7, two-leaf stage, leaf
[4] = soil culture, pF 1.7, two-leaf stage, underground portion

Row | Compound | Fresh weight, relative value (untreated plot = 100), Test 1 (potato; leaf) | Fresh weight, relative value (untreated plot = 100), Test 4 (potato; leaf) | Fresh weight, relative value (untreated plot = 100), Test 2 (potato; leaf) | Fresh weight, relative value (untreated plot = 100), Test 3 (potato; leaf) | Fresh weight, relative value (untreated plot = 100), Comparison 1 (potato; leaf) | Fresh weight, relative value (untreated plot = 100), Test 5 (“Momotaro” tomato [1]; leaf) | Fresh weight, relative value (untreated plot = 100), Test 8 (“Momotaro” tomato [1]; leaf) | Fresh weight, relative value (untreated plot = 100), Test 6 (“Momotaro” tomato [1]; leaf) | Fresh weight, relative value (untreated plot = 100), Test 7 (“Momotaro” tomato [1]; leaf) | Fresh weight, relative value (untreated plot = 100), Comparison 2 (“Momotaro” tomato [1]; leaf) | other results
1 | C[N+](C)(C)CC(=O)[O-] [Comparative product 3, Glycine betaine, reference compound] | 102 | 101 | 102 | 102 | 102 | 103 | 101 | 103 | 102 | 102 | Fresh weight, relative value (untreated plot = 100), Test 1 (“Momotaro” tomato [2]; [3]): 103; Fresh weight, relative value (untreated plot = 100), Test 4 (“Momotaro” tomato [2]; soil culture, EC 2 mS/cm, leaf): 101; Fresh weight, relative value (untreated plot = 100), Test 2 (“Momotaro” tomato [2]; soil culture, EC 2 mS/cm, pF 1.7, two-leaf stage, leaf): 103; Fresh weight, relative value (untreated plot = 100), Test 3 (“Momotaro” tomato [2]; [3]): 103; Fresh weight, relative value (untreated plot = 100), Comparison 1 (“Momotaro” tomato [2]; stress-free: soil culture, EC 1 mS/cm, pF 1.7, two-leaf stage, leaf): 102
2 | O=C(O)[C@@H]1CCCN1 [Comparative product 2, Proline, reference compound] | 102 | 101 | 102 | 101 | 101 | 102 | 101 | 102 | 102 | 102 | Fresh weight, relative value (untreated plot = 100), Test 1 (potato; underground portion): 102; Fresh weight, relative value (untreated plot = 100), Test 4 (potato; underground portion): 100; Fresh weight, relative value (untreated plot = 100), Test 2 (potato; underground portion): 102; Fresh weight, relative value (untreated plot = 100), Test 3 (potato; underground portion): 101; Fresh weight, relative value (untreated plot = 100), Comparison 1 (potato; underground portion): 102; Fresh weight, relative value (untreated plot = 100), Test 5 (“Momotaro” tomato [1]; underground portion): 103; Fresh weight, relative value (untreated plot = 100), Test 8 (“Momotaro” tomato [1]; underground portion): 100; Fresh weight, relative value (untreated plot = 100), Test 6 (“Momotaro” tomato [1]; underground portion): 103; Fresh weight, relative value (untreated plot = 100), Test 7 (“Momotaro” tomato [1]; underground portion): 102; Fresh weight, relative value (untreated plot = 100), Comparison 2 (“Momotaro” tomato [1]; underground portion): 103; Fresh weight, relative value (untreated plot = 100), Test 1 (“Momotaro” tomato [2]; [4]): 103; Fresh weight, relative value (untreated plot = 100), Test 4 (“Momotaro” tomato [2]; soil culture, EC 2 mS/cm, underground portion): 100; Fresh weight, relative value (untreated plot = 100), Test 3 (“Momotaro” tomato [2]; [4]): 100
3 | OC[C@H]1O[C@H](OC[C@H]2O[C@H](O[C@]3(CO)O[C@H](CO)[C@@H](O)[C@@H]3O)[C@H](O)[C@@H](O)[C@@H]2O)[C@H](O)[C@@H](O)[C@H]1O [Comparative product 4, Raffinose, reference compound] | 103 | 101 | 103 | 103 | 102 | 103 | 102 | 103 | 103 | 102 | –
4 | Alkyl (C12-14) polyglycoside [Product of present invention 16] | 120 | 132 | 140 | 120 | 101 | – | – | – | – | – | –
